Target: VEGFR2 (KDR/Flk-1) (Homo sapiens, UniProt P35968)
Assay: ELISA-based in vitro VEGFR2 tyrosine kinase assay (HTScan VEGFR2 kinase assay kit)
Format: biochemical

VEGFR2 (KDR/Flk-1), sequence (P35968 20-1356): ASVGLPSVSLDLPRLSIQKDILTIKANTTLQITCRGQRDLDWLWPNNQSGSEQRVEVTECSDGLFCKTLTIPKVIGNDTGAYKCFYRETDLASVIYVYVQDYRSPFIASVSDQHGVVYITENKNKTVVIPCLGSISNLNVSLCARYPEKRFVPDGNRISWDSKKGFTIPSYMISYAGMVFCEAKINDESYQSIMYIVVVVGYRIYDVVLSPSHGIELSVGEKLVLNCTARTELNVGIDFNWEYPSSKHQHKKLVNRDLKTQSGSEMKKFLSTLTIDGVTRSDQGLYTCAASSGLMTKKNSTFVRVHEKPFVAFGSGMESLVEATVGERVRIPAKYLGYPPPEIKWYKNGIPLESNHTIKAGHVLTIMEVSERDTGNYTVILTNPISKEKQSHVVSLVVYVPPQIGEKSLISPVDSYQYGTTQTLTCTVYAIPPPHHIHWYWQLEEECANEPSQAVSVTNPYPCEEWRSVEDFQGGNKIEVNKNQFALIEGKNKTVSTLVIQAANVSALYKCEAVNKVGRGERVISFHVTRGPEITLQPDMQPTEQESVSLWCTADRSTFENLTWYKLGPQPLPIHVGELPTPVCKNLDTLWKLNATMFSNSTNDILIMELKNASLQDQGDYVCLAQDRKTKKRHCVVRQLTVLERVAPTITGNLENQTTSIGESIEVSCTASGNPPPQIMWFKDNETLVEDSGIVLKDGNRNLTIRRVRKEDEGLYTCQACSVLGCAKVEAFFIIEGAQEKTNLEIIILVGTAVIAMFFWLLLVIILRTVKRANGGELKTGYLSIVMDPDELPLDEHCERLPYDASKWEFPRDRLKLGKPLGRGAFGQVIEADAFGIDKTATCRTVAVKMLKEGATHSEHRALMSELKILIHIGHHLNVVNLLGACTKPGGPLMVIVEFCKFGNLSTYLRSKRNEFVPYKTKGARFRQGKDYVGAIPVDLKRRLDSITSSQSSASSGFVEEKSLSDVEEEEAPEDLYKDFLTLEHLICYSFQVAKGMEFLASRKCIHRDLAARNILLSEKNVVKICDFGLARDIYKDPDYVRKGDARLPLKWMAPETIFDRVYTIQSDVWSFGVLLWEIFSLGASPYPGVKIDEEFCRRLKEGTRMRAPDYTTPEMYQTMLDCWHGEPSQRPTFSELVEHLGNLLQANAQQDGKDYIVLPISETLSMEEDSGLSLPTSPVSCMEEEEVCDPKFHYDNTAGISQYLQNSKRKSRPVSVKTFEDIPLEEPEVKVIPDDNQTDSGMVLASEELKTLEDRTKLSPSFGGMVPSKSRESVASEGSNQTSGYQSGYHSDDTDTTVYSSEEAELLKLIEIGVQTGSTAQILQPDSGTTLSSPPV

IC50: 0.0201 µM
SMILES: O=c1c(O)c(-c2ccc(O[C@@H]3O[C@H](CO)[C@@H](O)[C@H](O)[C@H]3O)c(O)c2)oc2cc(O)cc(O)c12 [QODG, Quercetin-4′-O-β-D-glucopyranoside]

Source: PMC3278463, “Quercetin-4′-O-β-D-glucopyranoside (QODG) Inhibits Angiogenesis by Suppressing VEGFR2-Mediated Signaling in Zebrafish and Endothelial Cells” (PLoS ONE, 2012)
